Values of other authors as cited in patent US20100256576A1, “Disinfectant Compositions, Methods and Systems” (TYCO HEALTHCARE GROUP LP, priority 2009, published 2010).

Details: up to 3000 mg infused over 3 hours, daily, humans with hypercalcemia

For `O=C([O-])CN(CCN(CC(=O)[O-])CC(=O)O)CC(=O)O.[Na+].[Na+]` [EDTA, Disodium EDTA], the “tolerability of infused dose” value is listed as “well tolerated”.
